Results on 102 compounds are retold here after ChEMBL document CHEMBL3507680, “University of Dundee, Gates Library screen for HepG2 cell viability”.

The data set in a line: Human HepG2 cell viability assay in 384 well format. It counts as toxicity, cell-based. Set-up: dose 125 nL, time 70.5 hour; concentration not given beside the values. The conditions noted are these: HepG2 cells, read-out: Inhibition.
As for `Cc1nn(C)c(Cl)c1C(=O)NCc1cccnc1N1CCOCC1`, the cytotoxicity at 70.5 h was -11.8%. Next, `Cc1nc(CCNC(=O)NC2CCCN(c3ncccn3)C2)cs1` (configuration not stated): 23.9%; `CS(=O)(=O)NCC1CCCN(C(=O)Nc2ccccc2N2CCCC2)C1` (configuration not stated): -1.87%; `CNS(=O)(=O)c1ccc(CCC(=O)NCc2cccc(OC)c2)cc1`: -0.152%. With `CN(Cc1cnn(C)c1)C(=O)c1ccc(=O)n(Cc2ccccc2)n1`, the cytotoxicity at 70.5 h is 27.5%. `COC(=O)C(C)(C)NC(=O)C1CC(=O)N(CC(F)(F)F)C1` (configuration not stated): the cytotoxicity at 70.5 h was 0.904%.

Regarding `Cc1nnc2n1CCN(C(=O)c1ccn(-c3cccc(F)c3)n1)C2`, the cytotoxicity at 70.5 h came to 5.14%. Regarding `CCc1nnc2n1CCN(C(=O)c1cn(-c3ccccc3)nn1)C2`, the cytotoxicity at 70.5 h turned out to be 3.13%.

For the compound `Cc1nnc2n1CCN(C(=O)c1cn(-c3ccc(F)cc3)nn1)C2`, the cytotoxicity at 70.5 h was -0.105%. In the case of `Cc1cc(NC(=O)N2CCOC(C(N)=O)C2)ccc1Br` (configuration not stated), the cytotoxicity at 70.5 h is -12.3%. Turning to `O=C(Nc1cccc(CN2CCC(CO)CC2)c1)c1cc(Cl)c[nH]1`, the cytotoxicity at 70.5 h was 32.7%. Consider `N#CCSCCCN1CCN(C(=O)c2ccccc2F)CC1`, for which the cytotoxicity at 70.5 h is -12.3%.

As to `CN(Cc1ccco1)C(=O)C1=NN(C)C(=O)CC1`, the cytotoxicity at 70.5 h is -3.82%.

Take `Cc1cccc(C(=O)N2CCCN(CCCSCC#N)CC2)c1`: the cytotoxicity at 70.5 h was -10.7%.

As for `CCCn1nc(C(=O)N(C)Cc2cnn(C)c2)ccc1=O`, the cytotoxicity at 70.5 h amounted to 0.0623%. On to `Cc1ccc(N(Cc2ccco2)C(=O)CC2=NN(C)C(=O)C2)cc1`, for which the cytotoxicity at 70.5 h was -9.83%. Consider `COc1c(CNCc2cccnc2N2CCN(C)CC2)c(C)nn1C`, for which the cytotoxicity at 70.5 h was 4%. Next, `CN(Cc1cccc(C#N)c1)S(=O)(=O)N1CCOCC1`: -9.82%; `Cc1ccc(CNC(=O)NC2CCCN(c3ncccn3)C2)cn1` (configuration not stated): -10%. Next, `COc1ccc(CNC(=O)c2ccc(Cl)cc2F)cc1C(=O)O`: -4.39%. In the case of `Cc1ccc(OCCC(=O)N(C)CCC#N)cc1C`, the cytotoxicity at 70.5 h was -7.6%.

On to `Cc1nn(CC(=O)N2CCN(Cc3cccnc3)CC2)c(C)c1Cl`, for which the cytotoxicity at 70.5 h was -10.2%. `Cc1cccc(OCCC(=O)N(C)CC(C)C#N)c1C` (configuration not stated): the cytotoxicity at 70.5 h came out at 19.7%. Next, `COCCn1ccc(NC(=O)Nc2ccncc2)n1`: -3.96%; `CCN(C(=O)Cc1ccc(NC(=O)NC2CC2)cc1)c1ccccc1`: -3.6%. Next, `CCc1cccc(C)c1NC(=O)C1CC(=O)N(Cc2ccccn2)C1` (configuration not stated): -3.75%; `Cc1noc(C(C)C)c1C(=O)NS(=O)(=O)c1cccnc1`: 17.5%; `COCCN(C)C(=O)Nc1ccc2c(ccn2CC(=O)N(C)C)c1`: -3.43%. As to `Cc1nc(CC(=O)N2CCN(c3ccc(N(C)C)cc3)CC2)cs1`, the cytotoxicity at 70.5 h was 4.33%.

On to `CCc1nccn1C1CCCN(C(=O)c2ccc(C(N)=O)cn2)C1` (configuration not stated), for which the cytotoxicity at 70.5 h was -9.53%. As to `CC(NC(=O)c1ccc(=O)n(C)c1)c1ccc(OCC2CC2)c(F)c1` (configuration not stated), the cytotoxicity at 70.5 h is -11.1%.

Regarding `CCc1nccn1C1CCCN(C(=O)c2ccnc(N(C)C)c2)C1` (configuration not stated), the cytotoxicity at 70.5 h was -7.75%.

With `CCc1csc(C2CCCN(C(=O)c3ccncc3)C2)n1` (configuration not stated), the cytotoxicity at 70.5 h was -5.33%. As for `O=C(CN1CCCC1CC(=O)c1ccccc1)NCc1ccccn1` (configuration not stated), the cytotoxicity at 70.5 h came to 4.93%.

`CSc1ccc(C(CNC(C)=O)N2CCc3sccc3C2)cc1` (configuration not stated): the cytotoxicity at 70.5 h was -12.8%.

For the compound `CCC(C)C(=O)NCCCn1nc(C)cc1C` (configuration not stated), the cytotoxicity at 70.5 h was -13.2%. For the compound `CCOc1cccc(C(=O)NCCC(=O)NCc2ccncc2)c1`, the cytotoxicity at 70.5 h was 23%.

Take `Cc1noc(C(C)N2CCN(c3ccc(C#N)cn3)CC2)n1` (configuration not stated): the cytotoxicity at 70.5 h was -10.1%. Next, `CC(C)c1noc(C(C)N2CCN(c3ccc(C#N)cn3)CC2)n1` (configuration not stated): -15.5%; `CN(Cc1nccn1CC(F)(F)F)C(=O)c1cccc(N(C)C)c1`: 0.768%.

Take `CN(Cc1nccn1CC(F)(F)F)C(=O)c1ccc2c(c1)OCO2`: the cytotoxicity at 70.5 h is -11%. Turning to `CCOc1ccc(C(=O)N(C)Cc2nccn2CC(F)(F)F)cc1`, the cytotoxicity at 70.5 h was -2.52%. As for `O=C(c1n[nH]c(=O)c2ccccc12)N1CCCC1Cn1cccn1` (configuration not stated), the cytotoxicity at 70.5 h was -8.16%. Next, `Cc1cc(N2CCN(c3ccc(=O)[nH]n3)CC2)nc(-c2ccncc2)n1`: -5.53%. On to `Cc1n[nH]c(C2CN(C(=O)c3cc(C4CC4)on3)CCO2)n1` (configuration not stated), for which the cytotoxicity at 70.5 h stood at 17%. Take `O=C(NCCc1nnc2n1CCC2)NCC1(c2ccccc2F)CC1`: the cytotoxicity at 70.5 h is -6.03%.

On to `CC1CN(CC(=O)NC(=O)NCc2cccs2)CCN1CC(F)(F)F` (configuration not stated), for which the cytotoxicity at 70.5 h is -11%. Next, `COc1cc(C(=O)N(C)Cc2nccn2CC(F)(F)F)ccc1C`: 15.7%.

In the case of `COC(=O)c1ccoc1CN(C)Cc1cc(OC)c(OC)cc1C`, the cytotoxicity at 70.5 h was -12.1%. The same measure for `CCc1n[nH]c(C2CN(C(=O)c3cc(C4CC4)on3)CCO2)n1` (configuration not stated): -5.69%; for `O=C(CN1CCCC1COc1ccccc1)NCc1ccccn1` (configuration not stated): -10.9%. Next, `Cc1cnn(CC2CCCN2C(=O)CCc2c(C)nc(C)[nH]c2=O)c1` (configuration not stated): -10.8%. As to `Cc1cnn(CC2CCCN2CC(=O)NCc2ccccn2)c1` (configuration not stated), the cytotoxicity at 70.5 h is -3.32%. In the case of `CCc1nc(CN2CCCC(N(C)CCc3cccs3)C2)no1` (configuration not stated), the cytotoxicity at 70.5 h is 21.1%. The same measure for `CN(CCc1ccccn1)C1CCCN(Cc2noc(C3CC3)n2)C1` (configuration not stated): -4.84%; for `CC(=O)N1CCN(CCNS(=O)(=O)c2cc(F)ccc2C)CC1`: 4.62%. With `O=C(CC1CCCO1)NCCc1ccc(Br)cc1F` (configuration not stated), the cytotoxicity at 70.5 h was -5.5%.

Regarding `COc1ccc(CNCCc2ccn(-c3ccccc3)n2)cc1O`, the cytotoxicity at 70.5 h is -8.7%. As for `O=C(CCC1CCCO1)NCc1ccc(Br)cc1F` (configuration not stated), the cytotoxicity at 70.5 h stood at 12.7%.

In the case of `CSCC(=O)NC1CCN(C(C)c2ccccc2)CC1` (configuration not stated), the cytotoxicity at 70.5 h is -6.02%. For the compound `Cc1cc(C#N)ccc1S(=O)(=O)NCc1cnc(N(C)C)n1C`, the cytotoxicity at 70.5 h was -5.78%. Turning to `Cc1nn(C)c(C)c1CC(C)NC(=O)NCc1ccoc1C` (configuration not stated), the cytotoxicity at 70.5 h was -4.68%.

For the compound `COc1ccccc1CC(C)(C)NC(=O)CC(F)(F)F`, the cytotoxicity at 70.5 h is -11.8%. Consider `Cn1cc(CNC(=O)C2CCCN(Cc3cccc(F)c3)C2)cn1` (configuration not stated), for which the cytotoxicity at 70.5 h was -11.1%. As for `O=C1N(CC2CC2)C(c2c[nH]nc2-c2cccnc2)NC12CCCC2` (configuration not stated), the cytotoxicity at 70.5 h is -12.7%. As for `CCN(Cc1nnnn1C1CC1)c1cc(C)ccc1C`, the cytotoxicity at 70.5 h is -2.4%. Turning to `CCc1nc(CN2CCC(C(=O)N(C)C)CC2)cs1`, the cytotoxicity at 70.5 h came out at 0.679%. `CC(NCc1ccc(C(C)(C)C)cc1)c1ccc(S(C)(=O)=O)cc1` (configuration not stated): the cytotoxicity at 70.5 h is -8.09%. The same measure for `CC(NCc1ccc(F)cc1)c1ccc(S(C)(=O)=O)cc1` (configuration not stated): -7.76%; for `CCC(NCc1ccccc1)c1ccccc1OCC(=O)NC` (configuration not stated): -6.53%; for `CCC(NCc1cccc(Cl)c1)c1ccccc1OCC(=O)NC` (configuration not stated): -1.52%. Turning to `CN(Cc1ccc(Cl)s1)C(=O)Nc1ccc(N(C)C)nc1`, the cytotoxicity at 70.5 h is -11.5%. Consider `Cc1cccc(CN2CCN(C(=O)c3cccnc3O)CC2)c1`, for which the cytotoxicity at 70.5 h was -4.88%. Consider `Cc1ccc(CCNC(=O)NCCCC(N)=O)c(C)c1`, for which the cytotoxicity at 70.5 h amounted to 1.66%. With `Cc1cccc(CN2CCN(C(=O)c3ccc(C)[nH]c3=O)CC2)c1`, the cytotoxicity at 70.5 h was -7.34%. As to `CCN(CC)C(=O)c1ccc(CNc2ncc(C#N)cc2Cl)cc1`, the cytotoxicity at 70.5 h is -7.7%.

As for `N#Cc1ccc(CNc2ncc(C#N)cc2Cl)cc1`, the cytotoxicity at 70.5 h turned out to be 0.2%. With `O=C1C(Sc2nc(=O)ccn2C2CC2)CCN1c1ccccc1F` (configuration not stated), the cytotoxicity at 70.5 h came out at 2.14%.

With `c1n[nH]cc1CCCN1CCC(OC2CCCCC2)CC1`, the cytotoxicity at 70.5 h worked out at 0.00847%. For `COCCCC(=O)N1CC(=O)Nc2cc(Br)ccc21`, the cytotoxicity at 70.5 h was -3.54%. Turning to `Cc1nc(NC(=O)COCC(F)(F)F)ccc1Br`, the cytotoxicity at 70.5 h was found to be 1.69%. As to `CCC(CNS(C)(=O)=O)Oc1ccccc1C` (configuration not stated), the cytotoxicity at 70.5 h was -3.25%.

In the case of `Cn1cc(CNCCNC(=O)Cc2ccccc2)c(-c2cccnc2)n1`, the cytotoxicity at 70.5 h was -5.62%.

With `Cn1cc(CNCCc2cccnc2)c(-c2cccnc2)n1`, the cytotoxicity at 70.5 h was 22.8%.

For `CNC(=O)CCc1cccc(OC2CCCC2)c1`, the cytotoxicity at 70.5 h is -12.2%. For `CCN(C(=O)CN1CCC(c2ccccc2)C1)C1CC1` (configuration not stated), the cytotoxicity at 70.5 h is 0.241%. Turning to `O=C1CCCN1c1cccc(CNCc2cc(F)ccc2F)c1`, the cytotoxicity at 70.5 h is -6.99%.

For the compound `CCC(C)c1cc(C(=O)N(CC(=O)NC)c2cccc(F)c2)on1` (configuration not stated), the cytotoxicity at 70.5 h came out at 20.8%. Turning to `CSc1ncccc1C(=O)NCC(c1ccco1)N(C)C` (configuration not stated), the cytotoxicity at 70.5 h is 4.37%. As for `Cc1cc(C(=O)CN2CCN(c3nccs3)CC2)c(C)n1C1CC1`, the cytotoxicity at 70.5 h is -10.5%. Next, `O=C(c1ccc(Sc2ccccn2)cc1)N1CCCSCC1`: -10.8%. The same measure for `COc1ccc(OC)c(-n2nnnc2SCC2CCCCO2)c1` (configuration not stated): -6.66%. Take `Cc1cc(C)n(C2CN(c3ncnc4c3CCC4)C2)n1`: the cytotoxicity at 70.5 h was -10.3%. Take `Cc1noc(CNC(=O)C(C)(C)NC(=O)OC(C)(C)C)n1`: the cytotoxicity at 70.5 h came out at 18.7%. In the case of `Cc1cc(NCc2cccc(C#N)c2)ccc1C(N)=O`, the cytotoxicity at 70.5 h was found to be 2.79%. For the compound `CCc1cccc(NC(=O)CNc2ccccc2OCCC(=O)OC)c1`, the cytotoxicity at 70.5 h is -0.0313%. With `CC(Cn1cncn1)NC(=O)NCc1csc(N(C)C)n1` (configuration not stated), the cytotoxicity at 70.5 h is -8.98%.

Turning to `CNC(=O)CN(C(=O)c1cc(C(C)C)no1)c1cccc(F)c1`, the cytotoxicity at 70.5 h worked out at 27.9%. `CCC1CCCN(S(=O)(=O)c2cnc3onc(C)c3c2)C1` (configuration not stated): the cytotoxicity at 70.5 h is -4.44%. Take `CCN1CCCN(S(=O)(=O)c2cnc3onc(C)c3c2)CC1`: the cytotoxicity at 70.5 h is -7.12%. With `CC(C)(CCS(C)(=O)=O)CNC(=O)NC1CCCCC1(C)C` (configuration not stated), the cytotoxicity at 70.5 h was determined as 28%. On to `Cc1nn(C)c(Cl)c1CNCc1cccnc1N1CCCCC1`, for which the cytotoxicity at 70.5 h is -2.26%.
